System: macrophage cells
Source text: Positive control includes only growth media (FIG. A).
Positive control includes only growth media.

CC(=O)[O-].CC(=O)[O-].[Zn+2] [Zn acetate]
cytotoxic effect on macrophage cells: toxic impact

Reference: patent US12018195B2, “Light-selective particles, related methods and related applications” (priority 2014, dated 2024)
